Article PMC3666986 (Clinical Medicine Insights. Pediatrics, 2010)
Entries after “also recorded” stand apart in the source; their conditions may differ. Like-named read-outs stand apart in the source and are kept apart here.

Tests used:
Pulmonary function tests = type: in vivo, human
[1] = cited from earlier work
[2] = healthy subjects and patients with asthma; cited from earlier work
[3] = cited from earlier work; remark: listed apart in the source
[4] = type: in vivo, human; conditions: for systemic accumulation: once daily administration of ciclesonide to children, with or without spacer; for time serum concentration detectable/observed after inhalation: present study, treatment not specified (discussion); for AUC: AUCτ, des-CIC in serum, Day 7, τ 24 h, mean ± SEM, N 29
[5] = Safety and tolerability monitoring; type: in vivo, human
glucocorticoid receptor = conditions: receptor affinity of dexamethasone = 100; cited from earlier work
[6] = adults, ciclesonide via HFA-MDI with AeroChamber Plus; cited from earlier work
[7] = Advair HFA; cited from earlier work
[8] = des-CIC, Treatment A 160 μg with spacer / Treatment C 160 μg no spacer, ANOVA
[9] = des-CIC, ciclesonide 80 μg with spacer vs 160 μg without spacer
[10] = des-CIC, ciclesonide 160 μg with spacer vs 160 μg without spacer

CC(C)C(=O)OCC(=O)[C@@]12O[C@H](C3CCCCC3)O[C@@H]1C[C@H]1[C@@H]3CCC4=CC(=O)C=C[C@]4(C)[C@H]3[C@@H](O)C[C@@]12C [ciclesonide]
change in lung function (Pulmonary function tests; between screening, Day 7 of each treatment period, and study end): did not change to any relevant extent
FEV1 at study end (Pulmonary function tests; mean ± SD, screening value 1.81 ± 0.44): 1.76 ± 0.42 L
oral bioavailability [1]: < 1%
lung deposition [2]: more than 50%
bound to plasma protein [3]: About 99%
systemic accumulation [4]: does not lead to systemic accumulation
time up to which serum concentrations were detectable ([4]; parent ciclesonide, Treatment A and C (160 μg), LLOQ 0.01 μg/L): up to 3 h
time up to which serum concentrations were measurable ([4]; parent ciclesonide, Treatment B (80 μg with spacer), LLOQ 0.01 μg/L): up to 1.5 h
time serum concentration detectable/observed after inhalation [4]: about 3 h
relation of AEs to study medication ([5]; assessed by investigator and sponsor): not related
tolerability ([5]; ciclesonide 80 or 160 μg once daily, 7-day periods, with or without spacer): well tolerated
number of patients reporting AEs ([5]; during the three treatment periods, 37 patients): 24
clinically relevant abnormalities (laboratory values) / adverse drug reactions ([5]; whole study): No clinically relevant abnormalities or adverse drug reactions; also recorded: No clinically relevant abnormalities

C[C@]12C=CC(=O)C=C1CC[C@@H]1[C@@H]2[C@@H](O)C[C@@]2(C)[C@H]1C[C@H]1O[C@@H](C3CCCCC3)O[C@]12C(=O)CO [des-CIC, desisobutyryl-ciclesonide]
oral bioavailability [1]: less than 1%
relative glucocorticoid receptor affinity (glucocorticoid receptor): 1200
bound to plasma protein [3]: About 99%
time up to which serum concentrations were detectable ([4]; des-CIC, 80 μg ciclesonide (Treatment B), LLOQ 0.01 μg/L): up to 6 h
time up to which serum concentration-time profile curves were obtained ([4]; des-CIC, 160 μg ciclesonide (Treatment A and Treatment C), LLOQ 0.01 μg/L): up to 12 h
AUCτ Ratio [% Ref] [4, 8]: 127 % Ref
Cmax Ratio [% Ref] [4, 8]: 155 % Ref
dose-normalized Cmax higher with spacer than without spacer [4, 9]: 63%
dose-normalized systemic exposure (AUCτ) higher with spacer than without spacer [4, 9]: 26%
dose-normalized Cmax higher with spacer than without spacer [4, 10]: 55%
dose-normalized systemic exposure (AUCτ) higher with spacer than without spacer [4, 10]: 27%
AUC ([4]; human, serum, inhaled, 80 ug, Treatment B 80 μg CIC with spacer): 0.316 ± 0.022 ng·h/mL
AUC ([4]; human, serum, inhaled, 160 ug, Treatment C 160 μg CIC no spacer): 0.542 ± 0.042 ng·h/mL
Tmax ([4]; human, serum, inhaled, tmax, des-CIC, similar for all treatments): 42 min
systemic accumulation [4]: does not lead to systemic accumulation
time serum concentration detectable/observed after inhalation [4]: up to 12 h
effect of spacer on PK [6]: did not influence the PK

C[C@@H]1C[C@H]2[C@@H]3CCC4=CC(=O)C=C[C@]4(C)[C@@]3(F)[C@@H](O)C[C@]2(C)[C@@]1(O)C(=O)CO [dexamethasone]
relative glucocorticoid receptor affinity (glucocorticoid receptor): 100

CCC(=O)O[C@]1(C(=O)SCF)[C@H](C)C[C@H]2[C@@H]3C[C@H](F)C4=CC(=O)C=C[C@]4(C)[C@@]3(F)[C@@H](O)C[C@@]21C [fluticasone propionate]
increase of AUC0–last with spacer [7]: 406%
increase of Cmax with spacer [7]: 210%
